Test results taken from publication PMC8044178, “Structural basis of norepinephrine recognition and transport inhibition in neurotransmitter transporters” (Nature Communications, 2021).
Values joined by “and” are separate entries in the source; they are usually repeats but may differ in a detail not shown here. Equal values may be shown once. Read-outs that look alike come from different tables or passages of the source.

Assays:
[1] = molecular target: T1, dDATfc (Drosophila melanogaster dopamine transporter functional construct) (Drosophila melanogaster, UniProt Q7K4Y6, DEL164-191/F471L/L415A/V74A); experiment: cell-based; conditions: for inhibition at 10 µM: Log[compound] M = -5
T1 construct: expressed in transfected cells; host or cells: HEK293S GnTI- cells, transient transfection with pEG-BacMam plasmid
Method: (§1) Additional mutations in the subsite B or subsite C were incorporated into this gene used for carrying out the uptake assays.
(§2) Cells were transiently transfected with pEG-BacMam plasmid harboring the dDAT cGFP gene and incubated for 35–40 hrs at 37 °C with 5% CO2 and 80% humidity. […] The transport activity was arrested with 0.5 ml of pre-chilled assay buffer containing 100 μM desipramine (Sigma Aldrich) added to each reaction. The cells were then washed twice with the same buffer before solubilizing them in 0.1 ml of 20 mM DDM for one hour at room temperature. […] Following this, 0.1 ml of the supernatant was added to 0.5 ml of scintillation fluid (Ultima Gold, Perkin Elmer) and the radioactivity was estimated on MicroBeta scintillation counter (Perkin Elmer). […] The background-subtracted, dose–response plots were analyzed using GraphPad Prism v.5.0.1 and Ki values were determined from Cheng–Prusoff’s equation using the IC50 values obtained from the experiments.

dDATfc A117S = molecular target: T2, dDATfc A117S (Drosophila melanogaster, UniProt Q7K4Y6, A117S/DEL164-191/F471L/L415A/V74A); experiment: cell-based
T2 construct: expressed in transfected cells; host or cells: HEK293S GnTI- cells, transient transfection with pEG-BacMam plasmid
Method: (§3) Earlier studies have posited that non-conserved residues in the primary binding site are responsible for selective inhibition of biogenic amine uptake[57],[58]. […] Effects of these mutations were analyzed through uptake inhibition using the three SNRIs employed in this study (Fig. 6a–c). […] Supplementary Table 2)[56],[59].
as §1, §2

dDATfc A428S = molecular target: T3, dDATfc A428S (Drosophila melanogaster, UniProt Q7K4Y6, A428S/DEL164-191/F471L/L415A/V74A); experiment: cell-based
T3 construct: expressed in transfected cells; host or cells: HEK293S GnTI- cells, transient transfection with pEG-BacMam plasmid
Method: as §3, §1, §2

dDATfc A117S/A428S = molecular target: T4, dDATfc A117S/A428S (Drosophila melanogaster, UniProt Q7K4Y6, A117S/A428S/DEL164-191/F471L/L415A/V74A); experiment: cell-based; assay type: cell-based
T4 construct: expressed in transfected cells; host or cells: HEK293S GnTI- cells, transient transfection with pEG-BacMam plasmid
Method: as §3, §1, §2

dDATmfc = molecular target: T5, dDATmfc (Drosophila melanogaster, UniProt Q7K4Y6, DEL162-202/F471L/L415A/V74A); experiment: biochemical; conditions: read-out: Percent binding
T5 construct: GFP-8x-His (C); made in house; host or cells: HEK293S GnTI- cells, BacMam baculovirus transduction
Method: (§4) Binding assays were performed with 20 nM of purified dDAT protein by scintillation proximity assay. For determining nisoxetine Kd, [^3H] Nisoxetine (Perkin Elmer) (in 1:5 molar ratio) was used in the range of 0.1 nM to 500 nM with 100 µM desipramine added to the control samples. Competition assays were done with 50 nM [^3H] […] The assays were done in 1 mM DDM, 0.2 mM CHS, 20 mM Tris-Cl (pH 8), 300 mM NaCl and 5% glycerol. The background values were subtracted to plot the final curves in GraphPad prism v5.0.1 and the Kd values were calculated. The IC50 values obtained from binding competition assays were used to deduce the Ki values by Cheng–Prusoff’s equation.

hDAT [2] = molecular target: hDAT; design: method as in earlier work; conditions: vs. RTI-55; ref 4 (Supplementary: Vaishnavi et al., 2004); read-out: Binding Inhibition (Ki), hDAT; cited from earlier work
hDAT [3] = conditions: read-out: Uptake Inhibition Ki, hDAT; ref 3 (Supplementary: Bymaster et al., 2003); cited from earlier work
hNET [4] = conditions: read-out: KM of transport by hNET; cited from earlier work
hDAT [5] = conditions: read-out: KM of transport by hDAT; cited from earlier work
dDATNET = molecular target: T6, dDATNET (Drosophila melanogaster, UniProt Q7K4Y6, D121G/DEL162-202/F471L/L415A/S426M/V74A); experiment: biochemical; assay type: binding
T6 construct: GFP-8x-His (C); made in house; host or cells: HEK293S GnTI- cells, BacMam baculovirus transduction
Method: as §4

hNET [6] = conditions: cited from earlier work
[7] = HEK293S, 0.5 h, read-out: Percent inhibition of DA uptake
[8] = 0.5 h, read-out: Percent inhibition of DA uptake
[9] = HEK293S, 0.5 h, read-out: Percent inhibition of DA uptake, dDATfc, single replicates

CNCC[C@H](Oc1cccc2ccccc12)c1cccs1 [S-duloxetine]
inhibition at 0.001 µM [1, 7]: 96.4%
inhibition at 0.003 µM [1, 7]: 88.9%
inhibition at 0.01 µM [1, 7]: 85.9%
inhibition at 0.03 µM [1, 7]: 77.7%
inhibition at 0.1 µM [1, 7]: 45%
inhibition at 0.3 µM [1, 7]: 21.9%
inhibition at 0.03 µM (dDATfc A117S; [8]): 96.1%
inhibition at 0.03 µM (dDATfc A428S; [8]): 94.4%
inhibition at 0.1 µM (dDATfc A428S; [8]): 80.2%
inhibition at 0.3 µM (dDATfc A428S; [8]): 45.5%
inhibition at 1 µM (dDATfc A428S; [8]): 9.62%
inhibition at 1 µM (dDATfc A117S/A428S; 0.5 h, read-out: Percent inhibition of DA uptake, A117S_A428S, Log[compound] M = -6, single replicates): 11.2%
inhibition at 0.3 µM (dDATfc A117S/A428S; 0.5 h, read-out: Percent inhibition of DA uptake, A117S_A428S, Log[compound] M = -6.52288, single replicates): 44%
inhibition at 0.1 µM (dDATfc A117S/A428S; 0.5 h, read-out: Percent inhibition of DA uptake, A117S_A428S, Log[compound] M = -7, single replicates): 76.7%
inhibition at 0.001 µM (dDATfc A117S/A428S; 0.5 h, read-out: Percent inhibition of DA uptake, A117S_A428S, Log[compound] M = -9, single replicates): 97.8%
increase in IC50 values, combination of A428S and A117S (dDATfc A117S/A428S; double mutant vs dDATfc): ~ 3 fold
remaining activity at 0.003 µM (dDATmfc): 86.1%
remaining activity at 0.1 µM (dDATmfc): 22.9%
Ki (hDAT [2]): 0.23 ± 0.017 µM
Ki (hDAT [3]): 0.37 µM

NCCc1ccc(O)c(O)c1 [DA, dopamine]
inhibition at 30 µM ([1]; HEK293S, 0.5 h, read-out: Percent inhibition of DA uptake, dDATfc, Log[compound] M = -4.52288, single replicates): 8.62%
inhibition at 10 µM [1, 9]: 20%
inhibition at 3 µM ([1]; HEK293S, 0.5 h, read-out: Percent inhibition of DA uptake, dDATfc, Log[compound] M = -5.52288, single replicates): 56.5%
inhibition at 0.1 µM ([1]; HEK293S, 0.5 h, read-out: Percent inhibition of DA uptake, dDATfc, Log[compound] M = -7, single replicates): 91.1%
inhibition at 0.03 µM ([1]; HEK293S, 0.5 h, read-out: Percent inhibition of DA uptake, dDATfc, Log[compound] M = -7.52288, single replicates): 92.7%
Km (hNET [4]): 0.67 µM
Km (hDAT [5]): 2.54 µM

COc1cccc(C2(O)CCCCC2CN(C)C)c1 (stereo not shown) [Tramadol, tramadol]
IC50 [1]: 24.7 ± 2.8 µM
Ki [1]: 15.9 ± 1.8 µM
inhibition at 30 µM [1, 7]: 38.5%
IC50 (dDATfc A117S): 35.8 ± 2.2 µM
inhibition at 100 µM (dDATfc A117S; 0.5 h, A117S, Log[compound] M = -4, single replicates, read-out: Percent inhibition of DA uptake): 29.4%
inhibition at 1 µM (dDATfc A117S; 0.5 h, A117S, Log[compound] M = -6, single replicates, read-out: Percent inhibition of DA uptake): 105%
inhibition at 3 µM (dDATfc A117S; [8]): 105%
inhibition at 30 µM (dDATfc A117S; [8]): 61.3%
inhibition at 300 µM (dDATfc A117S; [8]): 13.1%
inhibition at 3000 µM (dDATfc A117S; [8]): 3.78%
IC50 (dDATfc A428S): 50.5 ± 5.4 µM
inhibition at 100 µM (dDATfc A428S; 0.5 h, A428S, Log[compound] M = -4, single replicates, read-out: Percent inhibition of DA uptake): 32.2%
inhibition at 1 µM (dDATfc A428S; 0.5 h, A428S, Log[compound] M = -6, single replicates, read-out: Percent inhibition of DA uptake): 92.4%
inhibition at 300 µM (dDATfc A428S; [8]): 11.6%
IC50 (dDATfc A117S/A428S): 130 ± 12.2 µM
inhibition at 100 µM (dDATfc A117S/A428S; 0.5 h, read-out: Percent inhibition of DA uptake, A117S_A428S, Log[compound] M = -4, single replicates): 48.1%
Ki (dDATNET; Binding Ki with dDATNET (vs. Nisoxetine)): 5.31 µM and 5.3 µM
remaining activity at 100 µM (dDATNET; DAT NET, Log Tramadol (M) -4, replicate values, read-out: Percent binding): 43.3%
remaining activity at 30 µM (dDATNET; read-out: Percent binding): 60%
remaining activity at 300 µM (dDATNET; read-out: Percent binding): 17.9%
remaining activity at 3000 µM (dDATNET; read-out: Percent binding): 4.79%
remaining activity at 1000 µM (dDATmfc; DATmfc, Log Tramadol (M) -3, replicate values): 6.84%
remaining activity at 100 µM (dDATmfc; DATmfc, Log Tramadol (M) -4, replicate values): 23.9%
remaining activity at 10 µM (dDATmfc; DATmfc, Log Tramadol (M) -5, replicate values): 74.2%
remaining activity at 1 µM (dDATmfc; DATmfc, Log Tramadol (M) -6, replicate values): 91.4%
remaining activity at 3 µM (dDATmfc): 91%
remaining activity at 30 µM (dDATmfc): 44%
greater affinity to NET over DAT (hNET [6]; NET over DAT): ~ 50 fold

CN(C)C[C@H]1CCCC[C@]1(O)c1cccc(O)c1 [desmetramadol, O-desmethyl tramadol]
IC50 (hNET [6]; read-out: IC50, inhibition of hNET): 6 µM

CNCC[C@H](Oc1cccc2ccccc12)c1cccs1 [Dulox]
remaining activity at 0.03 µM (dDATNET; read-out: Percent binding): 86.3%
remaining activity at 0.1 µM (dDATNET; read-out: Percent binding): 57.8%
remaining activity at 0.3 µM (dDATNET; read-out: Percent binding): 34.1%
remaining activity at 1 µM (dDATNET; read-out: Percent binding): 18.4%

NCC(O)c1ccc(O)c(O)c1 [NE, L-norepinephrine]
inhibition at 3000 µM ([1]; HEK293S, 0.5 h, read-out: Percent inhibition of DA uptake, dDATfc, Log[compound] M = -2.52288, single replicates): 2.69%
inhibition at 100 µM ([1]; HEK293S, 0.5 h, read-out: Percent inhibition of DA uptake, dDATfc, Log[compound] M = -4, single replicates): 29.3%
inhibition at 10 µM [1, 9]: 64.5%
inhibition at 1 µM ([1]; HEK293S, 0.5 h, read-out: Percent inhibition of DA uptake, dDATfc, Log[compound] M = -6, single replicates): 92.2%
Ki ([1]; Ki, inhibition of [3H] dopamine uptake): 19.1 µM and 19 µM
Km (hNET [4]): 2.6 µM
Km (hDAT [5]): 20 µM
